Laboratory results from ChEMBL document CHEMBL1201862, “PubChem BioAssay data set” (2004).
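1) Cells in 96-well plates. 2) Compound, 48 h, 5 concentrations. 3) Linear interpolation between surrounding doses. 4) Unreached endpoint = highest concentration. Here, GI50 denotes the concentration required for 50% inhibition of growth.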 Calls of active or inactive are those of the source. Rule as the data show it: active = GI50 up to about 1.1 µM and inactive = higher.

Columns and labels:
Assay in all cases: NCI-60 cell line screen, 48 h
TK-10 = tested on: TK-10
MCF7 = tested on: MCF7
SF-539 = tested on: SF-539
A549 = tested on: A549
K562 = tested on: K562
OVCAR-4 = tested on: OVCAR-4
SF-295 = tested on: SF-295
M14 = tested on: M14
SNB-19 = tested on: SNB-19
UO-31 = tested on: UO-31
786-0 = tested on: 786-0
HOP-92 = tested on: HOP-92
HL-60 = tested on: HL-60
SK-MEL-28 = tested on: SK-MEL-28
SN12C = tested on: SN12C
MOLT-4 = tested on: MOLT-4
SK-MEL-2 = tested on: SK-MEL-2
MDA-N = tested on: MDA-N

Measured: GI50

O=C1C=CC(=C(c2ccccc2)c2ccc(O)cc2)C=C1
inactive: TK-10 19.2 µM | MCF7 13.4 µM | SF-539 13.2 µM | A549 17.4 µM | K562 15.1 µM | OVCAR-4 14.3 µM | SF-295 19.4 µM | M14 24.2 µM | SNB-19 13.8 µM | UO-31 14.8 µM | 786-0 18.7 µM | HOP-92 18 µM | HL-60 8.15 µM | SK-MEL-28 16.1 µM | SN12C 13.6 µM | MOLT-4 3.33 µM | SK-MEL-2 15.8 µM

COc1ccc(NC(=S)N/N=C/c2c(C)n(C)n(-c3ccccc3)c2=O)cc1
inactive: TK-10 53.3 µM | MCF7 42.7 µM | SF-539 21.3 µM | K562 26.2 µM | OVCAR-4 19.1 µM | SF-295 37.9 µM | M14 > 100 µM | SNB-19 20.5 µM | UO-31 26.4 µM | 786-0 24.1 µM | HOP-92 22.2 µM | HL-60 > 100 µM | SK-MEL-28 64.1 µM | MOLT-4 > 100 µM | SK-MEL-2 32.1 µM

CSc1nc2c(c(=O)n1C)N=C(c1ccc([N+](=O)[O-])cc1)CC(c1ccccc1)N2 (stereo not drawn)
inactive: MCF7 49 µM | SF-539 > 100 µM | A549 > 100 µM | K562 > 100 µM | OVCAR-4 91.8 µM | SF-295 > 100 µM | M14 > 100 µM | SNB-19 > 100 µM | UO-31 > 100 µM | 786-0 > 100 µM | HOP-92 > 100 µM | HL-60 20.5 µM | SK-MEL-28 > 100 µM | SN12C > 100 µM | MOLT-4 33 µM | SK-MEL-2 > 100 µM

O=C1CCC(=O)N1Sc1ccccc1
inactive: TK-10 > 100 µM | SF-539 > 100 µM | A549 > 100 µM | K562 > 100 µM | OVCAR-4 > 100 µM | SF-295 > 100 µM | M14 > 100 µM | SNB-19 > 100 µM | UO-31 > 100 µM | 786-0 > 100 µM | HOP-92 > 100 µM | HL-60 > 100 µM | SK-MEL-28 > 100 µM | SN12C > 100 µM | MOLT-4 > 100 µM | SK-MEL-2 > 100 µM

Cc1cccc(Nc2cn(CCOc3ccccc3)c(=O)[nH]c2=O)c1
inactive: MCF7 35.9 µM | A549 22.7 µM | K562 58.6 µM | OVCAR-4 69.5 µM | SF-295 49.9 µM | M14 47.2 µM | SNB-19 97.1 µM | MDA-N 32.4 µM | UO-31 21.4 µM | 786-0 34.2 µM | HOP-92 35.6 µM | SK-MEL-28 29.5 µM | SN12C 24.6 µM | MOLT-4 36.9 µM

O=C1NC(=S)NC(=O)C1=Cc1cc2c(cc1[N+](=O)[O-])OCO2
inactive: TK-10 > 100 µM | SF-539 83.2 µM | A549 > 100 µM | K562 41.8 µM | OVCAR-4 > 100 µM | M14 77.6 µM | SNB-19 > 100 µM | UO-31 > 100 µM | 786-0 62.8 µM | HL-60 35.8 µM | SK-MEL-28 > 100 µM | SN12C 74.6 µM | MOLT-4 51.4 µM | SK-MEL-2 > 100 µM

CC(C)c1cccc(C(C)C)c1NC(=O)C(=O)CC(=O)CC(c1ccccc1)c1c(O)oc2ccccc2c1=O (stereo not drawn)
inactive: TK-10 > 100 µM | SF-539 > 100 µM | A549 > 100 µM | K562 > 100 µM | OVCAR-4 > 100 µM | SF-295 > 100 µM | M14 > 100 µM | SNB-19 > 100 µM | UO-31 > 100 µM | 786-0 > 100 µM | HOP-92 > 100 µM | HL-60 > 100 µM | SK-MEL-28 > 100 µM | SN12C > 100 µM | MOLT-4 > 100 µM | SK-MEL-2 > 100 µM
